According to patent US11795460B2, “Compositions and methods for TTR gene editing and treating ATTR amyloidosis” (Intellia Therapeutics, Inc., priority 2017, dated 2023):

Tests used:
TTR [1] = assay: TTR editing in primary human hepatocytes electroporated with Spy Cas9 protein loaded with dgRNAs (Table 7); type: cell-based; settings: dgRNA electroporated with Spy Cas9 protein (RNP)
Method: (§1) Primary liver hepatocytes. Primary human liver hepatocytes (PHH) and primary cynomolgus liver hepatocytes (PCH) (Gibco) were cultured per the manufacturer's protocol (Invitrogen, protocol 11.28.2012). In brief, the cells were thawed and resuspended in hepatocyte thawing medium with supplements (Gibco, Cat. CM7000) followed by centrifugation at 100 g for 10 minutes for human and 80 g for 4 minutes for cyno. The supernatant was discarded and the pelleted cells resuspended in hepatocyte plating medium plus supplement pack (Invitrogen, Cat. A1217601 and CM3000). Cells were counted and plated on Bio-coat collagen I coated 96-well plates (ThermoFisher, Cat. 877272) at a density of 33,000 cells/well for human or 60,000 cells/well for cyno (or 65,000 cells/well when assaying effects on TTR protein, described further below). Plated cells were allowed to settle and adhere for 6 or 24 hours in a tissue culture incubator at 37° C. and 5% CO2 atmosphere. After incubation cells were checked for monolayer formation and media was replaced with hepatocyte culture medium with serum-free supplement pack (Invitrogen, Cat. A1217601 and CM4000).
(§2) […] formation was performed prior to electroporation or transfection of Spy Cas9 protein loaded with guide RNAs (RNPs) onto cells. For dual guide (dgRNAs), individual crRNA and trRNA was pre-annealed by mixing equivalent amounts of reagent and incubating at 95° C. for 2 min and cooling to room temperature. Single guide (sgRNAs) were boiled at 95° C. for 2 min and cooling to room temperature. The boiled dgRNA or sgRNA was incubated with Spy Cas9 protein in Optimem for 10 minutes at room temperature to form a ribonucleoprotein (RNP) complex.
For RNP electroporation into primary human and cyno hepatocytes, the cells are thawed and resuspended in Lonza electroporation Primary Cell P3 buffer at a concentration of 2500 cells per μL for human hepatocytes and 3500 cells per μL for cyno hepatocytes. A volume of 20 μL of resuspended cells and 5 μL of RNP are mixed together per guide. 20 μL of the mixture is placed into a Lonza electroporation plate. The cells were electroporated using the Lonza nucleofector with the preset protocol EX-147. Post electroporation, the cells are transferred into a Biocoat plate containing pre-warmed maintenance media and placed in a tissue culture incubator at 37° C. and 5% CO2.
(§3) Transfected cells were harvested post-transfection at 24, 48, or 72 hours. The genomic DNA was extracted from each well of a 96-well plate using 50 μL/well BuccalAmp DNA Extraction solution (Epicentre, Cat. QE09050) per manufacturer's protocol. All DNA samples were subjected to PCR and subsequent NGS analyses, as described herein.
(§4) To quantitatively determine the efficiency of editing at the target location in the genome, sequencing was utilized to identify the presence of insertions and deletions introduced by gene editing.
(§5) Primers were designed around the target site within the gene of interest (e.g. TTR), and the genomic area of interest was amplified.
(§6) Additional PCR was performed per the manufacturer's protocols (Illumina) to add chemistry for sequencing. The amplicons were sequenced on an Illumina MiSeq instrument. The reads were aligned to a reference genome (e.g., the human reference genome (hg38), the cynomologus reference genome (mf5), the rat reference genome (rn6), or the mouse reference genome (mm10)) after eliminating those having low quality scores. The resulting files containing the reads were mapped to the reference genome (BAM files), where reads that overlapped the target region of interest were selected and the number of wild type reads versus the number of reads which contain an insertion, substitution, or deletion was calculated.
The editing percentage (e.g., the “editing efficiency” or “percent editing” or “indel frequency”) is defined as the total number of sequence reads with insertions/deletions (“indels”) or substitutions over the total number of sequence reads, including wild type. […]

TTR [2] = assay: TTR editing in HUH7 cells transfected with Spy Cas9 mRNA and dgRNAs (Table 5); type: cell-based, human; settings: HUH7 cells co-transfected with Spy Cas9 mRNA (SEQ ID NO:2) and dgRNAs
Method: HUH7 cell line. The human hepatocellular carcinoma cell line HUH7 (Japanese Collection of Research Bioresources Cell Bank, Cat. JCRB0403) was cultured in DMEM media supplemented with 10% fetal bovine serum. Cells were plated on at a density of 15,000 cells/well in a 96-well plate 20 hours prior to transfection. Cells were transfected with Lipofectamine MessengerMAX (ThermoFisher, Cat. LMRNA003) per the manufacturer's protocol. Cells were sequentially transfected with a lipoplex containing Spy Cas9 mRNA (100 ng), MessengerMAX (0.3 μL/well) and OptiMem followed by a separate lipoplex containing individual crRNA (25 nM), tracer RNA (25 nM), MessengerMAX (0.3 μL/well) and OptiMem.
as §3, §4, §5, §6
(§7) The editing percentage (e.g., the “editing efficiency” or “percent editing” or “indel frequency”) is defined as the total number of sequence reads with insertions/deletions (“indels”) or substitutions over the total number of sequence reads, including wild type.
(§8) Guides in dgRNA format targeting human TTR and the cynomologus matched sequences were delivered to HEK293 Cas9, HUH7 and HepG2 cell lines, as well as primary human hepatocytes and primary cynomolgus monkey hepatocytes as described in Example 1. Percent editing was determined for crRNAs comprising each guide sequence across each cell type and the guide sequences were then rank ordered based on highest % edit. The screening data for the guide sequences in Table 1 in all five cell lines are listed below (Table 4 through 11).

TTR [3] = assay: TTR editing in primary human hepatocytes transfected with Spy Cas9 protein (RNP) loaded with dgRNAs (Table 8); type: cell-based; settings: dgRNA transfected with Spy Cas9 protein (RNP)
Method: as §1, §2
For RNP lipoplex transfections, cells were transfected with Lipofectamine RNAiMAX (ThermoFisher, Cat. 13778150) per the manufacturer's protocol. Cells were transfected with an RNP containing Spy Cas9 (10 nM), individual guide (10 nM), tracer RNA (10 nM), Lipofectamine RNAiMAX (1.0 μL/well) and OptiMem. RNP formation was performed as described above.
as §3, §4, §5, §6, §7
Guides in dgRNA format targeting human TTR and the cynomologus matched sequences were delivered to HEK293 Cas9, HUH7 and HepG2 cell lines, as well as primary human hepatocytes and primary cynomolgus monkey hepatocytes as described in Example 1. […]

TTR [4] = assay: TTR editing in primary human hepatocytes transfected with Spy Cas9 mRNA and dgRNAs (Table 9); type: cell-based; settings: dgRNA co-transfected with Spy Cas9 mRNA (SEQ ID NO:2)
Method: as §1
Lipofectamine RNAiMax (ThermoFisher, Cat. 13778150) based transfections were conducted as per the manufacturer's protocol. Cells were sequentially transfected with a lipoplex containing Spy Cas9 mRNA (100 ng), Lipofectamine RNAiMax (0.4 μL/well) and OptiMem followed by a separate lipoplex containing crRNA (25 nM) and tracer RNA (25 nM) or sgRNA (25 nM), Lipofectamine RNAiMax (0.4 μL/well) and OptiMem.
as §3, §4, §5, §6, §7, §8

TTR [5] = assay: TTR editing in HepG2 cells transfected with Spy Cas9 mRNA and dgRNAs (Table 6); type: cell-based, human; settings: HepG2 cells co-transfected with Spy Cas9 mRNA (SEQ ID NO:2) and dgRNAs
Method: HepG2 cell line. The human hepatocellular carcinoma cell line HepG2 (American Type Culture Collection, Cat. HB-8065) was cultured in DMEM media supplemented with 10% fetal bovine serum. Cells were counted and plated on Bio-coat collagen I coated 96-well plates (ThermoFisher, Cat. 877272) at a density of 10,000 cells/well in a 96-well plate 24 hours prior to transfection. Cells were transfected with Lipofectamine 2000 (ThermoFisher, Cat. 11668019) per the manufacturer's protocol. Cells were sequentially transfected with lipoplex containing Spy Cas9 mRNA (100 ng), Lipofectamine 2000 (0.2 μL/well) and OptiMem followed by a separate lipoplex containing individual crRNA (25 nM), tracer RNA (25 nM), Lipofectamine 2000 (0.2 μL/well) and OptiMem.
as §3, §4, §5, §6, §7, §8

TTR [6] = assay: TTR editing in HEK293_Cas9 cells transfected with dgRNAs (Table 4); type: cell-based, human; settings: HEK293_Cas9 cells (constitutively express Spy Cas9) transfected with dgRNAs
Method: HEK293 Cas9 cell line. The human embryonic kidney adenocarcinoma cell line HEK293 constitutively expressing Spy Cas9 (“HEK293_Cas9”) was cultured in DMEM media supplemented with 10% fetal bovine serum and 500 μg/ml G418. Cells were plated at a density of 10,000 cells/well in a 96-well plate 24 hours prior to transfection. Cells were transfected with Lipofectamine RNAiMAX (ThermoFisher, Cat. 13778150) per the manufacturer's protocol. Cells were transfected with a lipoplex containing individual crRNA (25 nM), trRNA (25 nM), Lipofectamine RNAiMAX (0.3 μL/well) and OptiMem.
as §3, §4, §5, §6, §7, §8

Sequence	Avg % Deletion (TTR [1]) [%]	Avg % Edit (TTR [1]) [%]	Avg % Insert (TTR [1]) [%]	Avg % Deletion (TTR [2]) [%]	Avg % Edit (TTR [2]) [%]	Avg % Insert (TTR [2]) [%]	Avg % Deletion (TTR [3]) [%]	Avg % Edit (TTR [3]) [%]	Avg % Insert (TTR [3]) [%]	Avg % Deletion (TTR [4]) [%]	Avg % Edit (TTR [4]) [%]	Avg % Insert (TTR [4]) [%]	Avg % Deletion (TTR [5]) [%]	Avg % Edit (TTR [5]) [%]	Avg % Insert (TTR [5]) [%]	Avg % Deletion (TTR [6]) [%]	Avg % Edit (TTR [6]) [%]	Avg % Insert (TTR [6]) [%]
CGGCAAUGGUGUAGCGGCGG (tested as dual guide RNA, chemistry not given here) [CR003376]	0.03	1.90	1.87	18.55	19.42	1.37	0.14	5.00	4.86	0.13	2.83	2.73	0.24	14.41	14.16	26.81	28.16	1.35
GGGGCUCAGCAGGGCGGCAA (tested as dual guide RNA, chemistry not given here) [CR003381]	0.50	6.20	5.83	99.70	99.70	1.92	0.27	7.15	6.88	0.73	4.07	3.33	0.63	6.81	6.18	18.23	22.04	3.82
AAAUCUUACUGGAAGGCACU (tested as dual guide RNA, chemistry not given here) [CR005306]	1.37	9.43	8.07				2.57	18.81	16.24	2.87	9.97	7.13	2.87	24.07	21.20			
